Reference: patent publication US11458138B2 (Novartis AG, priority 2017, dated 2022)
“Also recorded” adds a separate entry of the source.

Tests used:
[1] = system: human corneal endothelial cells (CECs); assay: CEC population expansion, markers Collagen 8a2, AQP1, SLC4A11, RPE65, CD31 and Na/K ATPase (RT-PCR, immunohistochemistry); type: cell-based; conditions: 10 micromolar, 10 days
Description: In order to verify that the expanded cell population expresses genes normally expressed by corneal endothelial cells in vivo, cells were cultured and RT-PCR analysis was then performed to measure the expression levels of Collagen 8a2, AQP1, SLC4A11, RPE65 and CD31. Immunohistochemical analysis was also performed to analyse the levels of Na/K ATPase and Collagen 8a2 as follows.
(§1) Cells were cultured at 37° C. in 5% CO2 for 10 days.
To perform the RT-PCR analysis, total RNA was extracted using Trizol (Invitrogen), RNeasy Mini and QIA Shredder (Qiagen) according to manufacturer's protocol. RNA quality and quantity were measured using Nanodrop 100 (Thermo-Fisher Scientific) and Bioanalyzer 2100 (Agilent Technologies). cDNA was prepared by reverse transcription and relative mRNA expression was assessed by quantitative RT-PCR using an 7900HT system (Applied Biosystems). The following cycling parameters were used:
1) 50° C. for 2 minutes; 2) 95° C. for 10 minutes; 3) 95° C. for 15 seconds 4) 60° C. for 1 minute. Steps 3-4 were repeated 40 times.
Actin mRNA levels were measured and used as a endogenous controls to normalize gene expression levels and calculate delta Ct values according to the formula dCt=Ct for gene of interest−Ct for endogenous control. Primers were obtained from Applied Biosystems. […]

[2] = system: corneal endothelial cell population; assay: Quantitative RT-PCR of expanded corneal endothelial cell population; type: cell-based, human
From the text: (2) The cells express one or more of Collagen 8a2, AQP1 (aquaporin 1) and SLC4A11 (Solute Carrier Family 4 Member 11). […] The expression of Collagen 8a2, AQP1 or SLC4A11 may be estimated by standard techniques known in the art, such as for example immunohistochemistry, quantitative RT-PCR or by FACS analysis.
The expression of RPE65 and CD31 may be estimated by standard techniques known in the art, such as for example quantitative RT-PCR, immunohistochemistry or FACS analysis.

[3] = system: human corneal endothelial cells (CECs); assay: CEC population expansion, immunohistochemical observation of cellular morphology (ZO-1); type: cell-based; conditions: 10 micromolar, 10 days
Description: as §1
In order to observe that the expanded cell population has the required cellular morphology for use in vivo, the ability of the cells to form tight junctions was measured by immunohistochemistry as follows. Cell cultures were fixed with 4% PFA for 20 minutes, permeabilized and blocked in a blocking solution of 0.3% Triton X-100 (Sigma-Aldrich) and 3% donkey serum in PBS for 30 minutes. Cells were then labeled with primary antibody in the blocking solution for 12 hours at 4° C. Primary antibody used was ZO-1 from Invitrogen. Samples were washed in PBS three times and donkey-raised secondary antibody Alexa Fluor 488 (Molecular Probes) at 1:500 dilution were applied for 30 minutes at room temperature. Cells were washed three times in PBS and nuclei (DNA) were stained with Sytox Orange (567 nm, Life Technologies). […] Fluorescence was observed using a Zeiss LSM 880 confocal microscope.

[4] = system: human keratinocytes (HaCaT); assay: In vitro YAP pathway activation and cell proliferation in human keratinocytes (HaCaT); type: cell-based
From the text: Accordingly, Example 133 is useful in promoting skin regeneration.

[5] = target: LATS1 (Homo sapiens (Human), UniProt O95835); assay: Target Identification Assay: inhibition of LATS1 activity (FIG. 33C); type: biochemical; conditions: read-out: IC50 against LATS1
Sequence of LATS1 (O95835 whole entry): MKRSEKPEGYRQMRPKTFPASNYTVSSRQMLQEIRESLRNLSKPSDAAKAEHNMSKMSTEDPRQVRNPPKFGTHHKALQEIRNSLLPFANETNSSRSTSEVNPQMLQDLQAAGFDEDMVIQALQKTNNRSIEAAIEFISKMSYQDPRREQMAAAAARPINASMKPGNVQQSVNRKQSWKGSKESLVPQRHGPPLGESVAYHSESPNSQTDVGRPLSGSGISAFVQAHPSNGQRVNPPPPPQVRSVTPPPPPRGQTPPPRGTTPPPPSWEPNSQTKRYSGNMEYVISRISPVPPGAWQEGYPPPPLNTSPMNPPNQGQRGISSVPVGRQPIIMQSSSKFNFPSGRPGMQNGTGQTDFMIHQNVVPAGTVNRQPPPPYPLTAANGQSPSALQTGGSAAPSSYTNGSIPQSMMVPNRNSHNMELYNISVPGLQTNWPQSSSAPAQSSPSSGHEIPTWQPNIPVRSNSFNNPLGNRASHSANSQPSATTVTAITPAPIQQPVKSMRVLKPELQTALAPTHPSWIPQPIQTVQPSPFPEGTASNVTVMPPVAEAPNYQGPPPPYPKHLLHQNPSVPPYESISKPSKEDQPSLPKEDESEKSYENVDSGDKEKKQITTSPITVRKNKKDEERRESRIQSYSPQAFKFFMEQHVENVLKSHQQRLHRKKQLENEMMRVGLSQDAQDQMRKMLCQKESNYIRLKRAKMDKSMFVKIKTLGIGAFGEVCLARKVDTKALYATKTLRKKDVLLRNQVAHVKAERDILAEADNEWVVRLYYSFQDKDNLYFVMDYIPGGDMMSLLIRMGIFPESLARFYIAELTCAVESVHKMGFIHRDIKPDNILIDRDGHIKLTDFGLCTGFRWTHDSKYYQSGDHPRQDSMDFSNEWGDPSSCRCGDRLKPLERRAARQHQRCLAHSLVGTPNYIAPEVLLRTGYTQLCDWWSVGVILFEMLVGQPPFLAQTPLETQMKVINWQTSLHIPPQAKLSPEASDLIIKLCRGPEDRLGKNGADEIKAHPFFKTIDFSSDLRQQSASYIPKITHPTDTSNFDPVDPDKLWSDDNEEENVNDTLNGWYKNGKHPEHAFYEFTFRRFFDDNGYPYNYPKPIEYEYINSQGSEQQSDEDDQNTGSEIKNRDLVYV
From the text: The result further confirmed that the compounds of the invention are potent inhibitors of the LATS kinases.

[6] = system: YAP target gene Cyr61; assay: In Vivo PD Assay: YAP target gene expression in mouse excisional wounds; conditions: mouse full-thickness excisional wounds, topical 0.2 and 2 mg/mL, two daily doses, vs vehicle, dose-dependent
Description: The compounds of the invention also activate the YAP pathway in vivo. A study of YAP pathway target gene expression was conducted in an in vivo mouse model as described in the In Vivo PD Assay in the Examples Section A. Two full-thickness excisional wounds on the dorsum of an anesthetized mouse were treated topically with vehicle, or 0.2 and 2 mg/mL of Example 133. After two daily doses, the skin samples around the wound edge were collected and Taqman analyses were performed using Cyr61 and Gapdh probes. mRNA expression levels for the target genes were normalized to Gapdh mRNA levels and plotted against the concentration of Example 133 in FIG. 34. […] The result is consistent with known LATS biology for activation of the YAP pathway.

[7] = system: Ki67-positive hepatocytes; assay: In vivo treatment of mice: immunohistochemistry (IHC) for Ki67 in liver; conditions: mouse liver, single oral dose 10 mg/kg, 24 h post-dose, relative to vehicle, mean+/-SEM
Description: (§2) All animal studies were carried out in accordance with federal, state, local and institutional guidelines governing the use of laboratory animals in research. Male C57BL/6J mice (age 8-10 weeks) were purchased from Jackson Labs (Bar Harbor, Me.). Example 46 was formulated for oral dosing at 3 mg/ml, and Example 261 at 1 mg/ml, in a suspension of methylcellulose:Tween80:Water (0.5:0.5:99). Single oral dose of either compound was at 10 mL/kg body weight. Blood and liver tissue were collected under deep anesthesia (isoflurane) at either 2 h post-dose (for mRNA analysis) or 24 h post-dose (for immunohistochemistry).
Liver tissue was fixed in 10% neutral buffered formalin for 24-48 h. Processing and embedding in paraffin was by standard procedures. Sections were cut at 5 microns thickness and stained using a Ventana automated system. Primary antibody for mouse Ki67 was a rabbit IgG (Bethyl Labs). Ki67-positive hepatocytes were quantified by image analysis using the HALO platform. At least 3 sections per animal were analyzed, from the middle of the medial lobe.

[8] = system: Cyr61 mRNA in liver; assay: In vivo treatment of mice: quantitative RT-PCR, Cyr61; conditions: mouse liver, single oral dose 10 mg/kg, 2 h post-dose, relative to vehicle, mean+/-SEM
Description: as §2
(§3) Total liver RNA was isolated from tissue after storage in RNAlater reagent (Qiagen), using a TRIzol method according to the manufacturer's instructions (Life Technologies). Relative mRNA abundance was measured by quantitative RT-PCR using TaqMan gene expression assays and reagents according to standard protocols (Applied Biosystems). Mouse probes for YAP target genes were CTGF (Mm01192933_g1) and Cyr61 (Mm00487498_m1). […] Relative changes in mRNA were calculated by the ΔΔCt method. Changes in gene expression with compound treatment are expressed as fold-change relative to the vehicle group.

[9] = system: CTGF mRNA in liver; assay: In vivo treatment of mice: quantitative RT-PCR, CTGF; conditions: mouse liver, single oral dose 10 mg/kg, 2 h post-dose, relative to vehicle, mean+/-SEM
Description: as §2, §3

**Q.** `CC(C)(O)CC(C)(C)Nc1nc(-c2ccncc2)nc2cnccc12` [Example 49, 2,4-dimethyl-4-{[2-(pyridin-4-yl)pyrido[3,4-d]pyrimidin-4-yl]amino}pentan-2-ol] was tested. Which “Expression of corneal endothelial cell genes by the expanded CEC population” value [1] did it give?
**A.** The value was “express genes normally expressed by corneal endothelial cells in vivo, including Collagen 8a2, AQP1, SLC4A11; also recorded: express genes normally expressed by corneal endothelial cells in vivo, including Na/K ATPase”.

**Q.** And the “expression of Collagen 8a2, AQP1, SLc4A11 by quantitative RT-PCR” value [2]?
**A.** The value was “express genes normally expressed by corneal endothelial cells in vivo”.

**Q.** What about the “expression of RPE65 and CD31 by quantitative RT-PCR” value [2] of the same molecule?
**A.** Its value is “do not express markers of other epithelia present in the eye”.

**Q.** What about the “CEC morphology and tight junctions (ZO-1)” value [3] of the same molecule?
**A.** Its value is “retained a normal corneal endothelial cell morphology and the ability to form tight junctions”.

**Q.** Which results are given for `Cc1n[nH]cc1-c1nc(NC2(C)CC2)c2ccncc2n1` [Example 133, 2-(3-methyl-1H-pyrazol-4-yl)-N-(1-methylcyclopropyl)pyrido[3,4-d]pyrimidin-4-amine]?
**A.** YAP pathway activation in vitro [4]: activated the YAP pathway; cell proliferation in human keratinocytes (HaCaT) [4]: promoted cell proliferation; IC50 [5]: 1.3 nM; YAP target gene Cyr61 mRNA normalized to Gapdh [6]: significantly up-regulated; also recorded: induced YAP target gene expression

**Q.** For `CC(C)(C)Nc1cc(-c2ccncc2)nc2cnccc12` [Example 261, N-(tert-butyl)-2-(pyridin-4-yl)-1,7-naphthyridin-4-amine], which “Ki67 IHC (fold-change)” value [7] is on record?
**A.** Its value is 3.1 (+/−0.5) fold-change.

**Q.** What about the “Cyr61 mRNA (fold-change)” value [8] of the same molecule?
**A.** Its value is 3.9 (+/−0.6) fold-change.

**Q.** And the “CTGF mRNA (fold-change)” value [9]?
**A.** The value was 2.5 (+/−0.2) fold-change.
